# Values joined by “and” are separate entries in the source; they are usually repeats but may differ in a detail not shown here. Equal entries are not always repeated. Inconclusive results and toxic doses are left out.
# System: BDF1 mice, P388 leukemia ip, median survival T/C
# Experiment: NCI In Vivo Anticancer Drug Screen. Data for tumor model P388 Leukemia (intraperitoneal) in B6D2F1 (BDF1) mice
# Conditions: endpoint: median survival time, higher = longer survival
# Outline: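 T/C = treated-group survival ÷ vehicle-control survival; tumour transplanted into mice before dosing.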
# [1] = dose: 50.0 mg/kg/injection, schedule: Q01DX009 (ip), vehicle: saline
# [2] = dose: 100.0 mg/kg/injection, schedule: Q01DX009 (ip), vehicle: saline
# [3] = dose: 200.0 mg/kg/injection, schedule: Q01DX009 (ip), vehicle: saline
# [4] = dose: 100.0 mg/kg/injection, schedule: Q04DX003 (ip), vehicle: Klucel (hydroxypropylcellulose) (HPC)
# [5] = dose: 200.0 mg/kg/injection, schedule: Q04DX003 (ip), vehicle: Klucel (hydroxypropylcellulose) (HPC)
# [6] = dose: 400.0 mg/kg/injection, schedule: Q04DX003 (ip), vehicle: Klucel (hydroxypropylcellulose) (HPC)
# [7] = dose: 50.0 mg/kg/injection, schedule: Q01DX009 (ip), vehicle: saline with Tween-80
# [8] = dose: 100.0 mg/kg/injection, schedule: Q01DX009 (ip), vehicle: saline with Tween-80
# [9] = dose: 100.0 mg/kg/injection, schedule: Q04DX003 (ip), vehicle: saline with Tween-80
# [10] = dose: 200.0 mg/kg/injection, schedule: Q04DX003 (ip), vehicle: saline with Tween-80
# [11] = dose: 400.0 mg/kg/injection, schedule: Q04DX003 (ip), vehicle: saline with Tween-80
# [12] = dose: 50.0 mg/kg/injection, schedule: Q04DX003 (ip), vehicle: saline
# [13] = dose: 100.0 mg/kg/injection, schedule: Q04DX003 (ip), vehicle: saline
# [14] = dose: 200.0 mg/kg/injection, schedule: Q04DX003 (ip), vehicle: saline
smiles,measurement,setting,value
CC[C@]12CN3CCc4c([nH]c5ccccc45)[C@@](C(=O)OC)(c4cc5c(cc4OC)N(C)[C@H]4[C@@](O)(C(=O)OC)[C@H](OC(C)=O)[C@]6(CC)C=CCN7CC[C@]54[C@@H]76)CC(C3)[C@H]1O2 (some centres undefined),T/C,"dose: 0.5 mg/kg/injection, schedule: Q01DX009 (ip), vehicle: saline",155 % of control
same,T/C,"dose: 1.0 mg/kg/injection, schedule: Q01DX009 (ip), vehicle: saline",160 % of control
same,T/C,"dose: 1.5 mg/kg/injection, schedule: Q01DX009 (ip), vehicle: Klucel (hydroxypropylcellulose) (HPC)",124 % of control
same,T/C,"dose: 3.0 mg/kg/injection, schedule: Q01DX009 (ip), vehicle: Klucel (hydroxypropylcellulose) (HPC)",162 % of control
same,T/C,"dose: 3.0 mg/kg/injection, schedule: Q01DX009 (ip), vehicle: saline",180 % of control
same,T/C,"dose: 3.9 mg/kg/injection, schedule: Q01DX009 (ip), vehicle: saline",160 % of control
same,T/C,"dose: 6.0 mg/kg/injection, schedule: Q01DX009 (ip), vehicle: Klucel (hydroxypropylcellulose) (HPC)",170 % of control and 171 % of control
same,T/C,"dose: 6.0 mg/kg/injection, schedule: Q01DX009 (ip), vehicle: saline with Tween-80",225 % of control
same,T/C,"dose: 6.0 mg/kg/injection, schedule: Q01DX009 (ip), vehicle: saline",234 % of control and 200 % of control
same,T/C,"dose: 9.0 mg/kg/injection, schedule: Q01DX009 (ip), vehicle: saline with Tween-80",95 % of control
same,T/C,"dose: 9.0 mg/kg/injection, schedule: Q01DX009 (ip), vehicle: saline",252 % of control
same,T/C,"dose: 12.0 mg/kg/injection, schedule: Q01DX009 (ip), vehicle: Klucel (hydroxypropylcellulose) (HPC)",186 % of control and 216 % of control
same,T/C,"dose: 12.0 mg/kg/injection, schedule: Q01DX009 (ip), vehicle: saline",240 % of control
same,T/C,"dose: 5.0 micrograms/kg/injection, schedule: Q01DX009 (ip), vehicle: saline",104 % of control
same,T/C,"dose: 10.0 micrograms/kg/injection, schedule: Q01DX009 (ip), vehicle: saline",109 % of control
same,T/C,"dose: 30.0 micrograms/kg/injection, schedule: Q01DX009 (ip), vehicle: saline",109 % of control
same,T/C,"dose: 60.0 micrograms/kg/injection, schedule: Q01DX009 (ip), vehicle: saline",100 % of control
same,T/C,"dose: 120.0 micrograms/kg/injection, schedule: Q01DX009 (ip), vehicle: saline",95 % of control
CC(C)COC(=O)C1(N)CCCC1,T/C,[1],100 % of control
same,T/C,"dose: 66.0 mg/kg/injection, schedule: Q01DX009 (ip), vehicle: saline with Tween-80",95 % of control and 108 % of control
same,T/C,[2],177 % of control
same,T/C,"dose: 150.0 mg/kg/injection, schedule: Q01DX009 (ip), vehicle: saline with Tween-80",108 % of control and 116 % of control
same,T/C,[3],95 % of control
Cc1cc(-c2ccccc2)nnc1NCCN1CCOCC1,T/C,"dose: 6.25 mg/kg/injection, schedule: Q01DX009 (ip), vehicle: saline",106 % of control
same,T/C,"dose: 12.5 mg/kg/injection, schedule: Q01DX009 (ip), vehicle: saline",90 % of control
same,T/C,"dose: 25.0 mg/kg/injection, schedule: Q01DX009 (ip), vehicle: saline",88 % of control
CCC[CH2][Sn]1([CH2]CCC)[O]OC(c2ccccc2)[O]1 (centres undefined),T/C,"dose: 0.5 mg/kg/injection, schedule: Q01DX009 (ip), vehicle: saline with Tween-80",109 % of control
same,T/C,"dose: 1.0 mg/kg/injection, schedule: Q01DX009 (ip), vehicle: saline with Tween-80",123 % of control
same,T/C,"dose: 1.25 mg/kg/injection, schedule: Q04DX003 (ip), vehicle: other",109 % of control
same,T/C,"dose: 1.32 mg/kg/injection, schedule: Q01DX009 (ip), vehicle: saline with Tween-80",115 % of control and 116 % of control
same,T/C,"dose: 2.0 mg/kg/injection, schedule: Q01DX009 (ip), vehicle: saline with Tween-80",110 % of control and 120 % of control
same,T/C,"dose: 2.5 mg/kg/injection, schedule: Q04DX003 (ip), vehicle: other",105 % of control and 113 % of control
same,T/C,"dose: 5.0 mg/kg/injection, schedule: Q04DX003 (ip), vehicle: other",118 % of control
same,T/C,"dose: 12.0 mg/kg/injection, schedule: Q01DX009 (ip), vehicle: saline with Tween-80",150 % of control
CCCCCCCCC(O)CCCC (centres undefined),T/C,[4],91 % of control
same,T/C,[5],91 % of control
same,T/C,[6],100 % of control
CCNC(C)(C)C(O)c1ccc(Cl)s1 (centres undefined),T/C,"dose: 25.0 mg/kg/injection, schedule: Q01DX009 (ip), vehicle: saline with Tween-80",105 % of control
same,T/C,"dose: 25.0 mg/kg/injection, schedule: Q04DX003 (ip), vehicle: saline with Tween-80",102 % of control
same,T/C,[7],88 % of control
same,T/C,"dose: 50.0 mg/kg/injection, schedule: Q04DX003 (ip), vehicle: saline with Tween-80",100 % of control
same,T/C,[8],88 % of control
same,T/C,[9],86 % of control and 101 % of control
same,T/C,[10],88 % of control and 104 % of control
same,T/C,[11],92 % of control
O=C(N=C1C=CC(=NC(=O)OCc2ccccc2)C=C1)OCc1ccccc1,T/C,[4],95 % of control
same,T/C,[5],100 % of control
same,T/C,[6],100 % of control
CCCCCCCCCCCC(c1ccccc1)[N+](C)(C)Cc1ccccc1 (centres undefined),T/C,"dose: 0.25 mg/kg/injection, schedule: Q01DX010 (ip), vehicle: saline",100 % of control
same,T/C,"dose: 0.5 mg/kg/injection, schedule: Q01DX010 (ip), vehicle: saline",108 % of control
same,T/C,"dose: 1.0 mg/kg/injection, schedule: Q01DX010 (ip), vehicle: saline",116 % of control
same,T/C,"dose: 2.0 mg/kg/injection, schedule: Q01DX010 (ip), vehicle: saline",108 % of control
CO/C=C1\Cc2cc(OC)c(OC)cc2C1=O,T/C,[8],90 % of control
same,T/C,"dose: 200.0 mg/kg/injection, schedule: Q01DX009 (ip), vehicle: saline with Tween-80",100 % of control
same,T/C,"dose: 400.0 mg/kg/injection, schedule: Q01DX009 (ip), vehicle: saline with Tween-80",109 % of control
Cc1nc([N+](=O)[O-])cn1CCC#N,T/C,[9],98 % of control
same,T/C,[10],99 % of control
same,T/C,[11],86 % of control
Oc1c(-c2ccccc2)cc(-[n+]2c(-c3ccccc3)cc(-c3ccccc3)cc2-c2ccccc2)cc1-c1ccccc1,T/C,"dose: 0.38 mg/kg/injection, schedule: Q01DX009 (ip), vehicle: saline with Tween-80",100 % of control
same,T/C,"dose: 0.75 mg/kg/injection, schedule: Q01DX009 (ip), vehicle: saline with Tween-80",108 % of control
same,T/C,"dose: 1.5 mg/kg/injection, schedule: Q01DX009 (ip), vehicle: saline with Tween-80",108 % of control
O=C1c2ccccc2-c2cccc3cccc1c23,T/C,"dose: 6.25 mg/kg/injection, schedule: Q01DX001 (ip), vehicle: saline sonified",96 % of control
same,T/C,"dose: 12.5 mg/kg/injection, schedule: Q01DX001 (ip), vehicle: saline sonified",96 % of control
same,T/C,"dose: 25.0 mg/kg/injection, schedule: Q01DX001 (ip), vehicle: saline sonified",92 % of control
CCCCNC(=O)Nc1ccc(N(C)C)cc1,T/C,[9],90 % of control
same,T/C,[10],90 % of control
same,T/C,[11],100 % of control
Oc1ccc(CNCCNCCNCc2ccc(O)cc2)cc1,T/C,"dose: 12.5 mg/kg/injection, schedule: Q04DX003 (ip), vehicle: saline",100 % of control
same,T/C,"dose: 25.0 mg/kg/injection, schedule: Q04DX003 (ip), vehicle: saline",107 % of control
same,T/C,[12],109 % of control
same,T/C,[13],100 % of control
same,T/C,[14],105 % of control
CCCCc1c2c(nn1C(C)=O)C(=O)C=C(Nc1ccccc1)C2=O,T/C,[9],100 % of control
same,T/C,[10],99 % of control
CC(C)C(Sc1nc(N)nc2nc[nH]c12)C(=O)O (centres undefined),T/C,"dose: 100.0 mg/kg/injection, schedule: Q04DX003 (ip), vehicle: saline sonified",110 % of control
same,T/C,"dose: 200.0 mg/kg/injection, schedule: Q04DX003 (ip), vehicle: saline sonified",120 % of control
same,T/C,"dose: 400.0 mg/kg/injection, schedule: Q04DX003 (ip), vehicle: saline sonified",105 % of control
C=C(C)[C@H]1Cc2c(ccc3c2O[C@@H]2COc4cc(OC)c(OC)cc4[C@@H]2C3=O)O1,T/C,"dose: 4.0 mg/kg/injection, schedule: Q01DX010 (ip), vehicle: saline",109 % of control
same,T/C,"dose: 10.0 mg/kg/injection, schedule: Q01DX009 (ip), vehicle: saline",95 % of control
same,T/C,"dose: 20.0 mg/kg/injection, schedule: Q01DX009 (ip), vehicle: saline",155 % of control
same,T/C,"dose: 40.0 mg/kg/injection, schedule: Q01DX009 (ip), vehicle: saline",120 % of control
COc1ccc2c(c1)CC1NCCc3cc4c(c-2c31)OCO4 (centres undefined),T/C,[7],114 % of control
same,T/C,[8],97 % of control
NC(N)=NCCCCCC(=O)Oc1ccc([N+](=O)[O-])cc1,T/C,[1],96 % of control
same,T/C,[12],90 % of control and 91 % of control
same,T/C,[2],99 % of control
same,T/C,[13],87 % of control and 90 % of control
same,T/C,[3],115 % of control
same,T/C,[14],91 % of control and 100 % of control
